Data reported in ChEMBL document CHEMBL1201862, “PubChem BioAssay data set” (2004).
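Dose response: 5 concentrations. Exposure: 48 h. Format: 96-well plates. Endpoint: linear interpolation; highest concentration if not reached. GI50 marks 50% less growth.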 The source made the active and inactive calls. Rule as the data show it: active = GI50 up to about 1.1 µM and inactive = higher.

Key:
Experiment in all cases: growth of human tumour cells (NCI), 48 h
[1] = system: NCI-H23
[2] = system: SR
[3] = system: OVCAR-4
[4] = system: HL-60
[5] = system: SN12C
[6] = system: A549
[7] = system: SW-620
[8] = system: DLD-1
[9] = system: SK-MEL-2
[10] = system: NCI-H226
[11] = system: NCI-H522
[12] = system: EKVX
[13] = system: COLO 205
[14] = system: LOX IMVI

Measured: GI50

CC(=O)CNC(=O)OC(C)(C)C
inactive: [1] > 100 µM | [2] > 100 µM | [3] > 100 µM | [4] > 100 µM | [5] > 100 µM | [6] > 100 µM | [7] > 100 µM | [8] > 100 µM | [9] > 100 µM | [10] > 100 µM | [11] > 100 µM | [12] > 100 µM

C1OC1CO[C@@H]1CO[C@H]2[C@@H]1OC[C@H]2OCC1CO1 (stereo partly drawn)
inactive: [1] > 100 µM | [13] > 100 µM | [2] 89.5 µM | [3] > 100 µM | [4] 82.8 µM | [5] > 100 µM | [6] > 100 µM | [7] > 100 µM | [8] > 100 µM | [9] > 100 µM | [10] > 100 µM | [11] > 100 µM | [14] > 100 µM | [12] > 100 µM

O=C(COc1ccc2c(=O)cc(-c3ccc(Cl)cc3)oc2c1)N1CCN(c2ccccc2)CC1
inactive: [1] > 100 µM | [13] 4.37 µM | [2] > 100 µM | [3] > 100 µM | [4] 59.3 µM | [5] 65.9 µM | [6] 48.9 µM | [7] > 100 µM | [8] > 100 µM | [9] > 100 µM | [10] > 100 µM | [14] > 100 µM | [12] > 100 µM

O=C1N[C@@H](O)[C@@H]2ON=C(c3ccccc3)[C@H]12
inactive: [1] > 100 µM | [13] > 100 µM | [2] > 100 µM | [3] > 100 µM | [4] > 100 µM | [5] > 100 µM | [6] > 100 µM | [7] > 100 µM | [8] > 100 µM | [9] > 100 µM | [10] > 100 µM | [14] > 100 µM | [12] > 100 µM

COc1ccc(-c2nc3c(nc2-c2ccc(OC)cc2)C(N)=NS(=O)(=O)N3)cc1
inactive: [1] > 100 µM | [13] > 100 µM | [4] > 100 µM | [5] > 100 µM | [6] > 100 µM | [7] > 100 µM | [8] > 100 µM | [9] > 100 µM | [10] > 100 µM | [11] > 100 µM | [14] > 100 µM | [12] > 100 µM

O=C(/C=C1/Nc2ccc([N+](=O)[O-])cc2NC1O)c1cccc([N+](=O)[O-])c1 (stereo not drawn)
inactive: [1] 36.6 µM | [13] 12.1 µM | [2] > 100 µM | [3] 4.16 µM | [4] 32.8 µM | [5] > 100 µM | [6] 58.7 µM | [7] 72.1 µM | [8] 17.3 µM | [10] 34.8 µM | [11] 18.7 µM | [14] 22.2 µM | [12] > 100 µM

O=C(/C=C/c1ccc(OCCCCCCCCCCOc2ccc(/C=C/C(=O)c3ccc(Cl)cc3)cc2)cc1)c1ccc(Cl)cc1
inactive: [1] > 100 µM | [13] > 100 µM | [4] > 100 µM | [5] > 100 µM | [6] > 100 µM | [7] > 100 µM | [8] > 100 µM | [9] > 100 µM | [10] > 100 µM | [11] > 100 µM | [14] > 100 µM | [12] > 100 µM

O=C1c2ccccc2C(=O)c2nc(-c3ccccc3)c(-c3ccccc3)nc21
inactive: [1] 17.6 µM | [13] 17.7 µM | [3] 7.08 µM | [6] 22.8 µM | [7] 2.7 µM | [8] > 100 µM | [9] 10.8 µM | [10] 22.5 µM | [11] 14.4 µM | [14] 8.04 µM | [12] > 100 µM

c1ccc(SC23C4C5C6C4C2C6C53)nc1 (stereo not drawn)
inactive: [1] > 100 µM | [13] > 100 µM | [2] > 19.6 µM | [3] > 100 µM | [4] 11.5 µM | [5] > 100 µM | [6] > 100 µM | [7] > 100 µM | [8] > 100 µM | [9] > 100 µM | [10] > 100 µM | [11] > 100 µM | [14] > 100 µM | [12] > 100 µM

CN(C)C(=S)Nc1nnc(Nc2ccccc2)s1
inactive: [1] > 100 µM | [13] > 100 µM | [2] > 100 µM | [3] > 100 µM | [4] > 100 µM | [5] > 100 µM | [6] > 100 µM | [7] > 100 µM | [8] > 100 µM | [9] > 100 µM | [10] > 100 µM | [11] 9.51 µM | [14] > 100 µM | [12] > 100 µM

COC(=O)/C=C/c1cc(OC)c(OC)c(OC)c1
inactive: [1] > 100 µM | [13] > 100 µM | [2] > 100 µM | [3] > 100 µM | [4] > 100 µM | [5] > 100 µM | [6] > 100 µM | [7] > 100 µM | [8] > 100 µM | [9] > 100 µM | [10] 46.1 µM | [11] 46.5 µM | [14] > 100 µM | [12] > 100 µM

COc1ccc(/C(=N\NC(=N)N)C(c2ccc(OC)cc2)C2OC(=O)c3ccccc32)cc1 (stereo not drawn)
inactive: [1] > 100 µM | [13] > 100 µM | [2] > 100 µM | [3] > 100 µM | [4] > 100 µM | [5] > 100 µM | [6] > 100 µM | [7] > 100 µM | [8] > 100 µM | [10] > 100 µM | [11] > 100 µM | [14] > 100 µM

CC1(C)C(=O)N(c2ccccc2)C(=O)N1c1nc2ccccc2[nH]1
inactive: [1] > 100 µM | [13] 49.7 µM | [2] 78.7 µM | [4] 63.2 µM | [5] > 100 µM | [6] > 100 µM | [7] 17.4 µM | [8] > 100 µM | [9] > 100 µM | [10] > 100 µM | [11] 54.7 µM | [14] 85.9 µM | [12] > 100 µM

Clc1cccc(-c2nnc(-c3nn(-c4ccccc4)c4nc5ccccc5nc34)o2)c1
inactive: [1] > 100 µM | [13] > 100 µM | [3] > 100 µM | [4] > 100 µM | [5] > 100 µM | [6] > 100 µM | [7] > 100 µM | [8] > 100 µM | [9] > 100 µM | [10] > 100 µM | [11] > 100 µM | [14] > 100 µM | [12] > 100 µM

COc1ccc(C2S/C(=C\c3ccc([N+](=O)[O-])cc3)C(=O)N2NC(=O)Cc2ccccc2)cc1 (stereo not drawn)
inactive: [1] > 100 µM | [13] > 100 µM | [2] > 100 µM | [3] > 100 µM | [4] 92.9 µM | [5] > 100 µM | [6] > 100 µM | [7] > 100 µM | [8] > 100 µM | [9] > 100 µM | [10] > 100 µM | [11] > 100 µM | [14] > 100 µM
